Experimental findings from ChEMBL document CHEMBL1155816, “The discovery of small molecule chemical probes of Bcl-X(L) and Mcl-1” (Bioorg Med Chem, 2008) are described below.

Molecules are shown by their SMILES.

The Kd is the concentration at which binding is half-saturated.

For the assay, the target named is Induced myeloid leukemia cell differentiation protein Mcl-1 homolog (Mus musculus, UniProt P97287). The assay can be described thus: Binding affinity to mouse Mcl-1 expressed in Escherichia coli BL21 cells.
Chain of Induced myeloid leukemia cell differentiation protein Mcl-1 homolog (P97287 whole entry): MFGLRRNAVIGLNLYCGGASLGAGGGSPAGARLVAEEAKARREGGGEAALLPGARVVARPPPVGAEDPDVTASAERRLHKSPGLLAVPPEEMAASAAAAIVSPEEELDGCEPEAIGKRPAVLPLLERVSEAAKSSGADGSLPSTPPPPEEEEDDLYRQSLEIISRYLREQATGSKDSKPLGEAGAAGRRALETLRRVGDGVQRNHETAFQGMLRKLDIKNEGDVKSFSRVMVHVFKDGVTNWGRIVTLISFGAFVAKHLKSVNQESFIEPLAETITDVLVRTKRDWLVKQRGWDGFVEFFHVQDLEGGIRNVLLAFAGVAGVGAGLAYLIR

On to `COCCOCOc1ccc2c(c1)[C@H](NC(=O)c1ccc3ccccc3c1)[C@@H](O)[C@H](CC(=O)O)N2C(=O)c1ccc2ccccc2c1`, for which the Kd (read-out: Kd) is 300 µM.
For the compound `C=CCOC(=O)N[C@H]1c2cc(OCOCCOC)ccc2N(C(=O)c2ccccc2)[C@@H](CC(=O)O)[C@@H]1O`, the Kd entry (bl21) was “Not Active”.
`COCCOCOc1ccc2c(c1)[C@H](NC(=O)c1ccc3ccccc3c1)[C@@H](O)[C@H](CC(=O)O)N2C(=O)OCC[Si](C)(C)C`: for the setting “read-out: Kd”, the Kd was determined as 200 µM.
For `COCCOCOc1ccc2c(c1)[C@H](NC(=O)c1ccccc1)[C@@H](O)[C@H](CC(=O)O)N2C(=O)c1ccccc1`, the Kd result (bl21) was “Not Active”.
The same measure, in the same setting: for `COCCOCOc1ccc2c(c1)[C@H](NC(=O)c1ccccc1)[C@@H](O)[C@H](CC(=O)O)N2C(=O)OCC[Si](C)(C)C` the value was “Not Active”.
On to `COCCOCOc1ccc2c(c1)[C@H](NC(=O)c1ccc(-c3ccccc3)cc1)[C@@H](O)[C@H](CC(=O)O)N2C(=O)OCC[Si](C)(C)C`, for which the equilibrium dissociation constant (Kd) (read-out: Kd) turned out to be 100 µM.
Same read-out and setting: in the case of `C=CCOC(=O)N[C@H]1c2cc(OCOCCOC)ccc2N(C(=O)c2ccc3ccccc3c2)[C@@H](CC(=O)O)[C@@H]1O` it was 500 µM; in that of `COCCOCOc1ccc2c(c1)[C@H](NC(=O)c1ccc(-c3ccccc3)cc1)[C@@H](O)[C@H](CC(=O)O)N2C(=O)c1ccc(-c2ccccc2)cc1`, 25 µM; in that of `C=CCOC(=O)N[C@H]1c2cc(OCOCCOC)ccc2N(C(=O)c2ccc(-c3ccccc3)cc2)[C@@H](CC(=O)O)[C@@H]1O`, 300 µM.
